# Test results reported in patent US10640495B2, “Heterocycle derivatives having TrkA inhibitory activity” (Shionogi & Co., Ltd., priority 2015, dated 2020).
# Target: human TrkA (Homo sapiens (Human), UniProt P04629)
# Assay: Human TrkA inhibition assay (Test Example 2)
# Type: biochemical
# Details: Table 152, human TrkA inhibition; read-out: IC50_nM
# Outline: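 Recombinant TrkA (1 nmol/L) was preincubated 15 min at room temperature with compound in HEPES/MgCl2/DTT buffer, then reacted with FL-peptide 27 (1.5 μmol/L) and ATP (500 μmol/L) for 120 min at 37 °C. After EDTA stop, substrate phosphorylation was read by microfluidic mobility shift. IC50 came from logistic regression over 3-fold dilution series.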
# Chain of human TrkA (P04629 440-796): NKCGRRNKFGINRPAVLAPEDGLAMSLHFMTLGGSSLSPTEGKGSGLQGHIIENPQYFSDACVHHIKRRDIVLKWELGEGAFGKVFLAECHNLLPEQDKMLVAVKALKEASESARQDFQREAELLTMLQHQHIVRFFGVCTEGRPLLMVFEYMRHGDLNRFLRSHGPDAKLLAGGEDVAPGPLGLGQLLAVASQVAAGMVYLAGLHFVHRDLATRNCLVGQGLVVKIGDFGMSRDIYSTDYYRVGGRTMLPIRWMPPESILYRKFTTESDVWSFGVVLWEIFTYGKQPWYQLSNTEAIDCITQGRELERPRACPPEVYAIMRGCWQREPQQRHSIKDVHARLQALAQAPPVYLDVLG
row,IC50 [µM],SMILES
1,> 1,COCCC1C[C@H](NC(=O)Nc2c(C)c(-c3cnn(C)c3)nn2-c2ccccc2)[C@@H](c2ccccc2)O1 (stereo partly drawn) [Compound I-17]

# Same assay, conditions: Table 153, human TrkA inhibition; read-out: IC50
row,IC50 [µM],SMILES
1,< 0.1,COCCN1C[C@@H](NC(=O)Nc2c(C)c(-c3cnc4c(c3)ncn4C)nn2-c2ccccc2)[C@H](c2ccccc2)O1 (racemic) [Compound I-161]
2,< 0.1,COCCN1C[C@@H](NC(=O)Nc2c(C)c(-c3cnc4c(c3)ncn4C)nn2-c2ccccc2)[C@H](c2cnc(F)c(F)c2)O1 (racemic) [Compound I-69]
3,< 0.1,CCN1C[C@@H](NC(=O)Nc2c(C)c(-c3cc(C(=O)NC)c(=O)n(C)c3)nn2-c2ccccc2)[C@H](c2ccc(F)c(F)c2)O1 (racemic) [Compound I-148]
4,< 0.1,COCCN1C[C@@H](NC(=O)Nc2c(C)c(-c3ccnc(N=S(C)(C)=O)c3)nn2-c2ccccc2)[C@H](c2ccc(F)c(F)c2)O1 (racemic) [Compound I-77]
5,< 0.1,COCCN1C[C@@H](NC(=O)Nc2c(C)c(-c3cnc(C)nc3)nn2-c2ccccc2)[C@H](c2cccc(F)c2)O1 (racemic) [Compound I-140]
6,< 0.1,COCCN1C[C@@H](NC(=O)Nc2c(C)c(-c3cnc4cccnc4c3)nn2-c2ccccc2)[C@H](c2ccc(F)c(F)c2)O1 (racemic) [Compound I-152]

# Same assay, conditions: Table 154, human TrkA inhibition; read-out: IC50
row,IC50 [µM],SMILES
1,< 0.1,COCCN1C[C@@H](NC(=O)Nc2c(C)c(-c3ccnc(C(=O)O)c3)nn2-c2ccccc2)[C@H](c2ccnc(F)c2)O1 (racemic) [Compound I-212]
2,< 0.1,COCCN1C[C@@H](NC(=O)Nc2c(C)c(-c3cnc(OC)c(C(=O)NOCC(C)(C)O)c3)nn2-c2ccccc2)[C@H](c2cnc(F)c(F)c2)O1 (racemic) [Compound I-318]
3,< 0.1,COCCN1C[C@@H](NC(=O)Nc2c(C)c(-c3ccnc(C(=O)NO)c3)nn2-c2ccccc2)[C@H](c2cnc(F)c(F)c2)O1 [Compound I-231]

# Same assay, conditions: Table 155, human TrkA inhibition; read-out: IC50
row,IC50 [µM],SMILES
1,< 0.1,COCCN1C[C@@H](NC(=O)Nc2c(C)c(-c3ccc4c(c3)NCCO4)nn2-c2ccccc2)[C@H](c2ccnc(F)c2)O1 (racemic) [Compound I-382]
2,< 0.1,COCCN1C[C@@H](NC(=O)Nc2c(C)c(-c3cnc(N4CCOCC4)nc3)nn2-c2ccccc2)[C@H](c2ccnc(F)c2)O1 (racemic) [Compound I-324]
3,< 0.1,COCCN1C[C@@H](NC(=O)Nc2c(C)c(-c3cnc4c(c3)N3C(=O)OCC3CO4)nn2-c2ccccc2)[C@H](c2ccnc(F)c2)O1 (mixture of isomers) [Compound I-326]
4,< 0.1,COCCN1C[C@@H](NC(=O)Nc2c(C)c(-c3cnc4c(c3)nc(C(=O)N3CCN(C)CC3)n4C)nn2-c2ccccc2)[C@H](c2ccnc(F)c2)O1 (racemic) [Compound I-403]
5,< 0.1,COCCN1C[C@@H](NC(=O)Nc2c(C)c(-c3cnc4c(c3)OCC(=O)N4)nn2-c2ccccc2)[C@H](c2cnc(F)c(F)c2)O1 (racemic) [Compound I-337]
6,< 0.1,COCCN1C[C@@H](NC(=O)Nc2c(C)c(-c3cnc(OC(CF)CF)nc3)nn2-c2ccccc2)[C@H](c2ccnc(F)c2)O1 (racemic) [Compound I-478]

# Same assay, conditions: Table 157, human TrkA inhibition; read-out: IC50
row,IC50 [µM],SMILES
1,< 0.1,CCN1C[C@@H](NC(=O)Nc2c(C)c(-c3cnc(C(N)=O)c(F)c3)nn2-c2ccccc2)[C@H](c2ccc(F)c(F)c2)O1 (racemic) [Compound I-612]
2,< 0.1,CCN1C[C@@H](NC(=O)Nc2c(C)c(OCCCC(=O)NCCO)nn2-c2ccccc2)[C@H](c2ccc(F)c(F)c2)O1 (racemic) [Compound I-668]
3,< 0.1,COCCN1C[C@@H](NC(=O)Nc2c(C)c(OC3CCN(C(=O)OC(C)(C)C)CC3)nn2-c2ccccc2)[C@H](c2ccc(F)c(F)c2)O1 [Compound I-601]
4,< 0.1,COCCN1C[C@@H](NC(=O)Nc2c(C)c(-c3cnc(OC)c(COC(C)=O)c3)nn2-c2ccccc2)[C@H](c2ccc(F)c(F)c2)O1 [Compound I-636]

# Same assay, conditions: human TrkA 1 nmol/L, ATP 500 μmol/L, 120 min at 37° C.; read-out: IC50 values (TrkA phosphorylation inhibition)
row,IC50 [µM],SMILES
1,0.0006,COCCN1C[C@@H](NC(=O)Nc2c(C)c(-c3cnc4c(c3)c(N=S(C)(C)=O)nn4C)nn2-c2ccccc2)[C@H](c2ccc(F)c(F)c2)O1 [Compound I-298]
